From the NIST ThermoML archive (doi:10.1016/j.tca.2010.07.032) come the findings set out here.

Where “and” joins values, the source holds several entries; their conditions need not be identical. Equal entries are not always repeated. ± gives the expanded uncertainty stated by the source.

For this data set the following is noted: Liquid; Temperature-Programmed Gas Chromatography.
Take `CC(C)COP(=O)(OCC(C)C)OCC(C)C` [triisobutyl phosphate]: the Normal boiling temperature was 264.67 ± 26 °C and 265.70 ± 27 °C.
With `CCCCCOP(=O)(OCCCCC)OCCCCC` [tripentyl phosphate] the figure was 323.21 ± 32 °C and 326.62 ± 33 °C; with `CCC(C)OP(=O)(OC(C)CC)OC(C)CC` (stereo not drawn) [tri-sec-butyl phosphate], 260.80 ± 26 °C and 261.06 ± 26 °C; with `CC(C)CCOP(=O)(OCCC(C)C)OCCC(C)C` [triisopentyl phosphate], 302.29 ± 30 °C and 302.37 ± 30 °C.
On to `CCCC(C)OP(=O)(OC(C)CCC)OC(C)CCC` (stereo not drawn) [tri-sec-amyl phosphate], for which the Normal boiling temperature was 282.02 ± 28 °C and 282.74 ± 28 °C.
With `CCCCCCOP(=O)(OCCCCCC)OCCCCCC` [trihexyl phosphate] the figure was 366.12 ± 37 °C and 365.02 ± 36 °C.
With `CCOP(=O)(OCC)OCC` [ethyl phosphate] the figure was 215.89 ± 22 °C and 216.34 ± 22 °C; with `COP(=O)(OC)OC` [trimethyl orthophosphate], 195.06 ± 20 °C and 194.97 ± 20 °C.
